Data published in doi:10.1101/2024.01.16.575974v2, “Structural insights into peptidoglycan hydrolysis by the FtsEX system in Escherichia coli during cell division” (biorxiv, 2025).
Positions count from the first letter of the chain named.

How the values were obtained:
EcoFtsEX [1] = molecular target: T1, EcoFtsEX (Escherichia coli, UniProt P0A9R7); experiment: complex stabilisation against precipitation (SDS-PAGE); assay type: binding; details: 2 mM nucleotide, pH 8.0
T1 construct: gene ftsE; full-length, His6-tagged (pTD68 his6-FtsEX), expressed in E. coli BL21(DE3) pLysS, DDM-solubilised, in peptidiscs; two FtsE and two FtsX; with Cell division protein FtsX
T1 sequence (P0A9R7 1-222): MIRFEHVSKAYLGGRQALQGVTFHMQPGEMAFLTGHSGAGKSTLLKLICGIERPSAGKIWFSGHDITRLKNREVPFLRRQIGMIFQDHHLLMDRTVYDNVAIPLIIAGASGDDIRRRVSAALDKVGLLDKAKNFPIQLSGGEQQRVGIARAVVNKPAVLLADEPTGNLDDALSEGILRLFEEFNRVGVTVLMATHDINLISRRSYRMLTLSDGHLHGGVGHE
T1 sequence (P0AC30 1-352 partner): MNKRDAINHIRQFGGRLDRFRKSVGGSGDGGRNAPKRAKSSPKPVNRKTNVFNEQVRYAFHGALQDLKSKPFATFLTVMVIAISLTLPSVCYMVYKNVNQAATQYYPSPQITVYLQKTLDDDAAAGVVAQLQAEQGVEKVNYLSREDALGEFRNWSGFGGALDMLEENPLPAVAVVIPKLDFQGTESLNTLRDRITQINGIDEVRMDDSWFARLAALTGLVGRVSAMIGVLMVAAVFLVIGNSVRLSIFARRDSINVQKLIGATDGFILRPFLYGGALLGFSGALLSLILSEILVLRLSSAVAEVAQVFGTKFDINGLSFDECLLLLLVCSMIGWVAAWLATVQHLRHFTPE

SpFtsEX = molecular target: T2, SpFtsEX (Streptococcus pneumoniae, UniProt A0A0H2ZM82); experiment: complex stabilisation (SEC yield, FtsE:FtsX stoichiometry on SDS-PAGE); details: 2 mM ATP, pH 8.0; indirect evidence of binding
T2 construct: gene ftsE; His6-FtsEX (pTD68) expressed in E. coli BL21(DE3) pLysS, DDM-solubilised, peptidiscs, SEC; with Cell division protein FtsX
T2 sequence (A0A0H2ZM82 1-230): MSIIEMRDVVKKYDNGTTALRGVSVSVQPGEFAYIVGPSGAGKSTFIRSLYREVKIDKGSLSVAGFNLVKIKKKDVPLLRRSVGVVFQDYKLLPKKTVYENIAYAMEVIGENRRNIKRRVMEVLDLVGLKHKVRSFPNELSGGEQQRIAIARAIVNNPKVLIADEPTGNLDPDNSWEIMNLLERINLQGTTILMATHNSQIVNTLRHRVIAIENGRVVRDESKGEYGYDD
T2 sequence (Q04LE4 1-308 partner): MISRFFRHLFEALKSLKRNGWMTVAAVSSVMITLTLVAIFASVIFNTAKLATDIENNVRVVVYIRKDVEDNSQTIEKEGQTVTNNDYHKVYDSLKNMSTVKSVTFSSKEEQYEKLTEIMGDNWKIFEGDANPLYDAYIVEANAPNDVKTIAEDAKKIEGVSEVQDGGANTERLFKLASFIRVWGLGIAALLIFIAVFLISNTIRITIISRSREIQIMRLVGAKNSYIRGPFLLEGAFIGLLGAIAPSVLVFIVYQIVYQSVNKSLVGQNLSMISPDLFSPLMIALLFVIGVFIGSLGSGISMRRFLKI

EcoFtsEX/EnvC = molecular target: T3, EcoFtsEX/EnvC (Escherichia coli, UniProt P0A9R7, E163Q); experiment: cryo-EM structure, […] Å; assay type: binding; details: 2 mM ATP-Mg2+, peptidiscs; hydrolysis-deficient mutant, two bound nucleotides at FtsE
T3 construct: gene ftsE; full-length His6-FtsEX in peptidiscs plus EnvC delta34 (signal region removed, His6-SUMO tag cut), both expressed in E. coli BL21(DE3) pLysS; with Cell division protein FtsX
T3 sequence (P0A9R7 1-222 E163Q): T1 sequence (P0A9R7 1-222) with E163Q
T3 sequence (P0AC30 1-352 partner): T1 sequence (P0AC30 1-352 partner)
T3 sequence (P37690 35-419 partner): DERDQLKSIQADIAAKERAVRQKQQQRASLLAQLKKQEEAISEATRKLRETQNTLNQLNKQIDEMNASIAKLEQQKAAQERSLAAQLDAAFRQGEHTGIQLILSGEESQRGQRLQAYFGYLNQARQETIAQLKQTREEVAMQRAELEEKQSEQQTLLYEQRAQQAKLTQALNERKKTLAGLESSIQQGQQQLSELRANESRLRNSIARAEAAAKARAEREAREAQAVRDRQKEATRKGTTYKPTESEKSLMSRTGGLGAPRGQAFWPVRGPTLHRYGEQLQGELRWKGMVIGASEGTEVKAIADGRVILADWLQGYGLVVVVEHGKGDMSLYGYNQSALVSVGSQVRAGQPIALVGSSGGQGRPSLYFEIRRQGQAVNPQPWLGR

PaeFtsEX = molecular target: T4, PaeFtsEX (Pseudomonas aeruginosa, UniProt Q9I6C0); experiment: complex stabilisation (SEC yield, FtsE:FtsX stoichiometry on SDS-PAGE); details: 2 mM ATP, pH 8.0; indirect evidence of binding
T4 construct: gene ftsE; His6-FtsEX (pTD68) expressed in E. coli BL21(DE3) pLysS, DDM-solubilised, peptidiscs, SEC; with Cell division protein FtsX
T4 sequence (Q9I6C0 1-223): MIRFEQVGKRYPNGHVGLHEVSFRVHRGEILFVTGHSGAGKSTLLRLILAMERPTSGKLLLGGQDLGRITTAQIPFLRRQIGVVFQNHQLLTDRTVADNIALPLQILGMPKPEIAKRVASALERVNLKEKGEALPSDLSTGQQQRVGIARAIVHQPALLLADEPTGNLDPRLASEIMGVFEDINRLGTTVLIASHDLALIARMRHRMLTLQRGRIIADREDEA
T4 sequence (Q9I6B9 1-335 partner): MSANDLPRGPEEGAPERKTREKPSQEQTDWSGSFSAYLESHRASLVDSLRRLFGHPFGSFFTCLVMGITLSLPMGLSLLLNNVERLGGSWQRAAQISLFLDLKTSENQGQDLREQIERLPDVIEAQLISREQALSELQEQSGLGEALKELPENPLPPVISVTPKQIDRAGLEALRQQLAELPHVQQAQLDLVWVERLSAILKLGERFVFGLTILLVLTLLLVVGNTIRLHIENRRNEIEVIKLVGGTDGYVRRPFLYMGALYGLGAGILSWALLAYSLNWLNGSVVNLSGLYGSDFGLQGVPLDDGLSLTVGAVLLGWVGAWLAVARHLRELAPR

BsFtsEX = molecular target: T5, BsFtsEX (Bacillus subtilis, UniProt O34814); experiment: as above; details: 2 mM ATP, pH 8.0; indirect evidence of binding
T5 construct: gene ftsE; His6-FtsEX (pTD68) expressed in E. coli BL21(DE3) pLysS, DDM-solubilised, peptidiscs, SEC; with Cell division protein FtsX
T5 sequence (O34814 1-228): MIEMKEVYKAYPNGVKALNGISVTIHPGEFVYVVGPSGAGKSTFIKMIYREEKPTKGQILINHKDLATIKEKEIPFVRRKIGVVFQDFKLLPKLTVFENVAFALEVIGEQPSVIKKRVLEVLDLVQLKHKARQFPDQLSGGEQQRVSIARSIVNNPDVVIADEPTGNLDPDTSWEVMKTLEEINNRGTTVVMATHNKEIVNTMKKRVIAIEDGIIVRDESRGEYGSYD
T5 sequence (O34876 1-296 partner): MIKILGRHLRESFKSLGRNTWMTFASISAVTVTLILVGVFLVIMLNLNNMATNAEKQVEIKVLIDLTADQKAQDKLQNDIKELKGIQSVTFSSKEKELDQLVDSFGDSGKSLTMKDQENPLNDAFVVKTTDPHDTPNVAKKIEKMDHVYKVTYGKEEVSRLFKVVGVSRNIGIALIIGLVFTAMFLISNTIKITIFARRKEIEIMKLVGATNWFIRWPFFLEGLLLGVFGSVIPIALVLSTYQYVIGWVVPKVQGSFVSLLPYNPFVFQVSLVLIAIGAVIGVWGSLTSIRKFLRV

EcoFtsEX [2] = molecular target: T1, EcoFtsEX; experiment: cryo-EM structure, […] Å; assay type: binding; details: 3 mM ATPγS, 2 mM Mg2+, peptidiscs; two bound nucleotides at FtsE

Nc1ncnc2c1ncn2[C@@H]1O[C@H](COP(=O)(O)OP(=O)(O)O)[C@@H](O)[C@H]1O [ADP]
complex stabilisation against precipitation (SDS-PAGE) (EcoFtsEX [1]): ATP analogues, including ATPγS, AMP-PNP, and ADP, also exhibited similar stabilizing effects

Nc1ncnc2c1ncn2[C@@H]1O[C@H](COP(=O)(O)OP(=O)(O)NP(=O)(O)O)[C@@H](O)[C@H]1O [AMP-PNP]
complex stabilisation against precipitation (SDS-PAGE) (EcoFtsEX [1]): ATP analogues, including ATPγS, AMP-PNP, and ADP, also exhibited similar stabilizing effects

Nc1ncnc2c1ncn2[C@@H]1O[C@H](COP(=O)(O)OP(=O)(O)OP(=O)(O)O)[C@@H](O)[C@H]1O [ATP]
complex stabilisation (SEC yield, FtsE:FtsX stoichiometry on SDS-PAGE) (SpFtsEX): regardless of the bacterial species, ATP consistently enhanced the stability of the complexes
cryo-EM structure, 3.4 Å (EcoFtsEX/EnvC): 8W6J (ATP-bound FtsE^E163QX/EnvC)
complex stabilisation (SEC yield, FtsE:FtsX stoichiometry on SDS-PAGE) (PaeFtsEX): regardless of the bacterial species, ATP consistently enhanced the stability of the complexes
complex stabilisation (SEC yield, FtsE:FtsX stoichiometry on SDS-PAGE) (BsFtsEX): regardless of the bacterial species, ATP consistently enhanced the stability of the complexes

Nc1ncnc2c1ncn2[C@@H]1O[C@H](COP(=O)(O)OP(=O)(O)OP(O)(O)=S)[C@@H](O)[C@H]1O [ATPγS]
cryo-EM structure, 3.7 Å (EcoFtsEX [2]): 8W6I (ATPγS bound FtsEX)
